Legend:
ICAM-1 [1] = experiment: Rhinovirus-induced ICAM-1 expression in BEAS2B cells; assay type: cell-based; settings: Homo sapiens, BEAS-2B, read-out: IC50 Values for HRV Stimulated Release/Expression ICAM1 (BEAS2B)
Experimental: Human rhinovirus RV16 was obtained from the American Type Culture Collection (Manassas, Va.). Viral stocks were generated by infecting Hela cells with HRV until 80% of the cells were cytopathic.
BEAS2B cells were infected with HRV at an MOI of 5 and incubated for 2 hr at 33° C. with gentle shaking for to promote absorption. The cells were then washed with PBS, fresh media added and the cells were incubated for a further 72 hr. The supernatant was collected for assay of IL-8 concentrations using a Duoset ELISA development kit (R&D systems, Minneapolis, Minn.).
The level of cell surface ICAM-1 expression was determined by cell-based ELISA. At 72 hr after infection, cells were fixed with 4% formaldehyde in PBS. After quenching endogenous peroxidase by adding 0.1% sodium azide and 1% hydrogen peroxide, wells were washed with wash-buffer (0.05% Tween in PBS: PBS-Tween). […] The ICAM-1 signal was detected by adding substrate and reading at 450 nm with a reference wavelength of 655 nm using a spectrophotometer. The wells were then washed with PBS-Tween and total cell numbers in each well were determined by reading absorbance at 595 nm after Crystal Violet staining and elution by 1% SDS solution. The measured OD450-655 readings were corrected for cell number by dividing with the OD595 reading in each well. […]

IL-6 = experiment: TNFα-stimulated IL-6 production in primary bronchial epithelial cells from COPD; assay type: cell-based; settings: Homo sapiens, Epithelial cell
Experimental: Primary airway epithelial cells obtained from patients with COPD were purchased from Asterand (Royston, UK), and maintained in bronchial epithelial cell growth media that was prepared by mixing together LHC8 (lnvitrogen) (500 mL), with LHC9 (Invitrogen) (500 mL) and 3 μL of retinoic acid solution (5 mg/mL in neat DMSO. The media was removed by aspiration and fresh BEGM (200 μL) was added to each well. Where appropriate, 1 μL of a solution of the test compound at the state concentrations or 1 μL of DMSO as the vehicle control was added and the cells were incubated for 2 hr. The cells were stimulated with TNFα (50 μL; final concentration 50 ng/mL) and then incubated for 4 hr at 37° C. and 5% CO2. The supernatant was then collected and kept at −20° C.
The levels of IL-6 and IL-8 were determined by ELISA using R&D Systems' Human IL-6 and IL-8 Duoset® Elisa Kits. The inhibition of IL-6 and IL-8 production was calculated at each concentration by comparison with vehicle control.

Balb/c mice = experiment: LPS-induced neutrophil accumulation in mice; assay type: in vivo, mouse
Experimental: […] At T=0, mice were placed into an exposure chamber and exposed to LPS (7.0 mL, 0.5 mg/mL solution in PBS) for 30 min). After a further 8 hr the animals were anesthetized, their tracheas cannulated and BALF extracted by infusing and then withdrawing from their lungs 1.0 mL of PBS via the tracheal catheter. Total and differential white cell counts in the BALF samples were measured using a Neubaur haemocytometer. Cytospin smears of the BALF samples were prepared by centrifugation at 200 rpm for 5 min at RT and stained using a DiffQuik stain system (Dade Behring). Cells were counted using oil immersion microscopy. Data for neutrophil numbers in BAL are shown as mean ±S.E.M. (standard error of the mean). The percentage inhibition of neutrophil accumulation was calculated for each treatment relative to vehicle treatment,

ICAM-1 [2] = experiment: Poly I:C-induced ICAM-1 expression in BEAS2B cells; assay type: cell-based; settings: Homo sapiens, BEAS-2B, read-out: PolyIC/ICAM1 IC50 (BEAS2B)
Experimental: Poly I:C was used in these studies as a simple, RNA virus mimic. Poly I:C-Oligofectamine mixture (1 μg/mL Poly I:C, ±2% Oligofectamine, 25 μL; Invivogen Ltd., San Diego, Calif., and Invitrogen, Carlsbad, Calif., respectively) was transfected into BEAS2B cells (human bronchial epithelial cells, ATCC). Cells were pre-incubated with final concentrations of test compounds for 2 hr and the level of ICAM-1 expression on the cell surface was determined by cell-based ELISA. At a time point 18 hr after poly I:C transfection, cells were fixed with 4% formaldehyde in PBS (100 μL) and then endogenous peroxidase was quenched by the addition of washing buffer (100 μL, 0.05% Tween in PBS: PBS-Tween) containing 0.1% sodium azide and 1% hydrogen peroxide. Cells were washed with wash-buffer (3×200 μL). and after blocking the wells with 5% milk in PBS-Tween (100 μL) for 1 hr, the cells were incubated with anti-human ICAM-1 antibody (50 μL; Cell Signaling Technology, Danvers, Mass.) in 1% BSA PBS overnight at 4° C.
The cells were washed with PBS-Tween (3×200 μL) and incubated with the secondary antibody (100 μL; HRP-conjugated anti-rabbit IgG, Dako Ltd., Glostrup, Denmark). The cells were then incubated with of substrate (50 μL) for 2-20 min, followed by the addition of stop solution (50 μL, 1N H2SO4). The ICAM-1 signal was detected by reading […] the absorbance at 450 nm against a reference wavelength of 655 nm using a spectrophotometer. The cells were then washed with PBS-Tween (3×200 μL) and total cell numbers in each well were determined by reading absorbance at 595 nm after Crystal Violet staining (50 μL of a 2% solution in PBS) and elution by 1% SDS solution (100 μL) in distilled water. The measured OD 450-655 readings were corrected for cell number by dividing with the OD595 reading in each well. The inhibition of ICAM-1 expression was calculated at each concentration of test compound by comparison with vehicle control.

## Cc1ccc(-n2nc(C(C)(C)C)cc2NC(=O)Nc2ccc(Oc3ccnc(Nc4ccccc4)n3)c3ccccc23)cc1 [Example 1, 1-(3-(tert-Butyl)-1-(p-tolyl)-1H-pyrazol-5-yl)-3-(4-(2-(phenylamino)pyrimidin-4-yloxy)naphthalen-1-yl)urea]
ICAM-1 [1]
  IC50: 0.023 nM
IL-6; COPD patients, TNFα stimulated
  IC50: 1.7 nM
IL-6; read-out: IL-6 E max, bronchial epithelial cell
  Emax at 0.1 µg/mL: 100%
Balb/c mice; 0.05 mg/mL intra tracheal, pre-dose 2 hr
  % inhibition of neutrophil numbers in BALF: 18%
Balb/c mice; 0.2 mg/mL intra tracheal, pre-dose 2 hr
  % inhibition of neutrophil numbers in BALF: 48%
Balb/c mice; 1.0 mg/mL intra tracheal, pre-dose 2 hr
  % inhibition of neutrophil numbers in BALF: 77%
Balb/c mice; 1.0 mg/mL intra tracheal, pre-dose 8 hr
  % inhibition of neutrophil numbers in BALF: 48%
Balb/c mice; 1.0 mg/mL intra tracheal, pre-dose 12 hr
  % inhibition of neutrophil numbers in BALF: 4%
Balb/c mice; mice
  LPS-induced neutrophil accumulation, effect in words: dose dependent inhibition

## Cc1ccc(-n2nc(C(C)(C)C)cc2NC(=O)Nc2ccc(Oc3ccnc(Nc4cccc(O)c4)n3)c3ccccc23)cc1 [Example 2, 1-(3-(tert-Butyl)-1-(p-tolyl)-1H-pyrazol-5-yl)-3-(4-((2-((3-hydroxyphenyl)amino)pyrimidin-4-yl)oxy)naphthalen-1-yl)urea]
ICAM-1 [2]
  IC50: 4.3 nM

Reference: patent US10238658B2, “1-pyrazolyl-3-(4-((2-anilinopyrimidin-4-yl) oxy) napththalen-1-yl) ureas as p38 MAP kinase inhibitors” (Respivert Limited, priority 2011, dated 2019)
